From US7354926B2, “Molecules derived from noraporphine” (Sederma SAS, priority 2002, dated 2008)

Legend:
[1] = Inhibition of peroxidation induced on liposomes by UVA; conditions: for Inhibition perox. UVA: UVA 10 J/cm^2, 45° C., 24 hours, combined dienes
Procedure: (§1) In order to seek an antioxidant activity, we evaluated 2,9-diacetyloxy-1,10-dimethoxy-6-methyl-noraporphine (compound II) effect on the inhibition of peroxidation induced on liposomes by UVA or pair HO2/FeCl2.
(§2) The liposomes, once manufactured, receive the products to be tested in solution. Then they are put under UVA lamp and are irradiated to 10 J/cm^2. The liposomes are incubated at 45° C. After 24 hours, the lipidic peroxidation is quantified by estimating the rate of combined dienes markers. The effect of the product is compared with negative control.

[2] = system: G-3-PDH (Glycerol-3-Phosphate deshydrogenase) activity in fibroblasts 3T3 L1 / pre-adipocytes; experiment: Inhibition of lipogenesis (in vitro): G-3-PDH activity in differentiating 3T3 L1 pre-adipocytes; format: cell-based; conditions: for ACTIVITY G-3-PDH/10^−6 cells (inhibition in % of the witness): average of 3 independent tests
Procedure: The following test is based on the fact that a cocktail from substances (hormonal messengers) induce the fibroblasts 3T3 L1 differentiation, in culture, into pre-adipocytes then in adipocytes charged with lipids.
The culture proceeds in three stages: cellular multiplication until confluence, addition of cocktail of differentiation (stage during which the initial pre-adipocytes are obtained (72 hours), then active differentiation with lipogenesis stimulation (approximately 72 hours) at the end of which apparent storage in lipidic droplets is then definitely visible under microscope.
The enzyme G-3-PDH (Glycerol-3-Phosphate deshydrogenase), essential to triglyceride synthesis is expressed very strongly during this active stage of lipidic storage.
The product to be tested is added at the second step.
After the incubation period the G-3-PDH activity is compared between the pre-adipocytes witnesses and those incubated in the presence of the tested product. Under these conditions, a product which inhibits the lipogenesis causes a fall of the G-3-PDH activity.
After the induced differentiation, the solution to test is added to the culture of pre-adipocytes, here a 2,9-diacetyloxy-1,10-dimethoxy-6-methyl-noraporphine solution (compound II). In parallel, two witness cultures, one in negative and the other in positive are carried out.
At the end of the incubation, the cells are taken and lysed and the test is carried out on the intracellular contents.
The G-3-PDH activity is measured by NADH disappearance (λ=340 nm).
The enzymatic activity values are standardized with the number of cells.

[3] = system: normal human melanocytes (MHN); experiment: Inhibition of melanin synthesis (in vitro) in culture of normal human melanocytes; format: cell-based; conditions: 7 days of exposure, various concentrations, vs control cells, normalized on protein content
Procedure: The efficacy of the products on melanization was tested in culture of normal human melanocytes (MHN). This culture medium is conventionally used to test variations in melanin levels. The cells are incubated in the presence of the test product for 7 days while the control cells are incubated in the culture medium alone.
After 7 days, the total melanin (phaeomelanin and eumelanin) present in the cells is determined after cell lysis and dissolution in sodium hydroxide, the assay is colorimetric.
The melanin level produced under exposure to the test product at various concentrations are compared to those obtained with the control cells. The data are normalized on the protein content of the sample.
The inhibition of synthesis observed after 7 days of exposure to those products is dependent on the test concentration. Inhibition varies from −28 to −51%.

[4] = Inhibition of peroxidation induced on liposomes by HO2/FeCl2 (Fenton reaction); conditions: 0.06 mmol/l; similar protocol with HO2/FeCl2 added to the liposomes
Procedure: as §1, §2
A strong inhibition (−60% with 0.06 mmol/l) is also obtained in a similar protocol when HO2/FeCl2. is added (Fenton reaction) to the solution of liposomes.

COc1cc2c(cc1OC(C)=O)CC1c3c(cc(OC(C)=O)c(OC)c3-2)CCN1C (centres unmarked) [compound II, 2,9-diacetyloxy-1,10-dimethoxy-6-methyl-noraporphine]
Inhibition perox. UVA ([1]; 0.03 mmol/l): −93%
Inhibition perox. UVA ([1]; 0.06 mmol/l): −87%
Inhibition perox. UVA ([1]; 0.09 mmol/l): −89%
Inhibition perox. UVA ([1]; 0.15 mmol/l): ≈−100%
Inhibition perox. UVA ([1]; 0.30 mmol/l): ≈−100%
Inhibition of lipidic peroxidation UVA induced (in words) ([1]; with the tested concentrations (0.03-0.30 mmol/l)): almost completely inhibits
ACTIVITY G-3-PDH/10^−6 cells (inhibition in % of the witness) ([2]; 0.03 mmol/l): −49%
ACTIVITY G-3-PDH/10^−6 cells (inhibition in % of the witness) ([2]; 0.06 mmol/l): −67%
Morphology of the preadipocytes under microscope ([2]; compared to witness cells): few lipidic inclusions
Inhibition of melanin synthesis [3]: −28 to −51%
Inhibition of peroxidation, HO2/FeCl2 (Fenton reaction) [4]: −60%
